The target of one test is T1, GST-tagged truncated human mutant G2019S LRRK2 (Homo sapiens, UniProt Q5S007, G2019S).
T1 construct: GST-tagged truncated human mutant G2019S LRRK2; purchased Life Technologies Corporation (Carlsbad, CA)
T1 sequence (Q5S007 970-2527 G2019S limits assumed): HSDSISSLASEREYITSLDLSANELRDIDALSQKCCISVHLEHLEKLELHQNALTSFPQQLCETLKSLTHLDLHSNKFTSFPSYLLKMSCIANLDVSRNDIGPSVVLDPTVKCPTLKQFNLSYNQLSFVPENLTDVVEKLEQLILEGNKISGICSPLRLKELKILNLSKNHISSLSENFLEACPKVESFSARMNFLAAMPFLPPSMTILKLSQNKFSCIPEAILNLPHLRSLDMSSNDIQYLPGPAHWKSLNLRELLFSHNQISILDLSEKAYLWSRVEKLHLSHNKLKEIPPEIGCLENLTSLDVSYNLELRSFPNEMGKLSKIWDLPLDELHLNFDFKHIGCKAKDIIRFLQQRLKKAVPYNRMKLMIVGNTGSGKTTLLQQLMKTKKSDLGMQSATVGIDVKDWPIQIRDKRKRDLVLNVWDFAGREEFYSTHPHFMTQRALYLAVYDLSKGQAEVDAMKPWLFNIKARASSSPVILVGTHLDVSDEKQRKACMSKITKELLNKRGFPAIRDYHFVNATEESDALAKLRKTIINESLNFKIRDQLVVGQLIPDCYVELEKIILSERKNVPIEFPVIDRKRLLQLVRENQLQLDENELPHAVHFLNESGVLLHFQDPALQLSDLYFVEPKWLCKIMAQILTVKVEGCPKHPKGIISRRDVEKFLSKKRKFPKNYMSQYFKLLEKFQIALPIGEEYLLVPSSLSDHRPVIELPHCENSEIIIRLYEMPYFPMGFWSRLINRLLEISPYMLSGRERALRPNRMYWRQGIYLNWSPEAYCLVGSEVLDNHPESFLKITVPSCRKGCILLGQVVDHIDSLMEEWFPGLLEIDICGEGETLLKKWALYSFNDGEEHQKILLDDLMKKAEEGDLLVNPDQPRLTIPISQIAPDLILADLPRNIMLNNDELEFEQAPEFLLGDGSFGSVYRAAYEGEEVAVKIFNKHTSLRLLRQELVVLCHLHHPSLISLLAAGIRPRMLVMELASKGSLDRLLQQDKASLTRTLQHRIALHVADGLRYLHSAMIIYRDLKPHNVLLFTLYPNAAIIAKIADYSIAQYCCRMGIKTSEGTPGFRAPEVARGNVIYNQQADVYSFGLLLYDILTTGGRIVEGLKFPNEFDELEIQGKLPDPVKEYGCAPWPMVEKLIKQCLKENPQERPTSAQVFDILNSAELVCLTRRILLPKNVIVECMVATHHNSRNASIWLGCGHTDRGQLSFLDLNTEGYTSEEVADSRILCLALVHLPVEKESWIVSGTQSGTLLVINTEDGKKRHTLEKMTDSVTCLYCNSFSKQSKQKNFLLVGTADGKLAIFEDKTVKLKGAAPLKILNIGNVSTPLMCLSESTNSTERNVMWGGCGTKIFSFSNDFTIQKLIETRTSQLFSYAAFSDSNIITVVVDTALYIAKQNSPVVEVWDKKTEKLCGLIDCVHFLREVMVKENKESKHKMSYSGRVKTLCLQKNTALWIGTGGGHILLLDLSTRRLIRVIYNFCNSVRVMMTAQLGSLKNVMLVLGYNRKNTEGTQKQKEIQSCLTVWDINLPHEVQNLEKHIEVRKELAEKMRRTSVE
The test is described as follows: LRRK2 G2019S Km ATP LanthaScreen assay. It is filed as biochemical. The following applies: 134 μM ATP (Km ATP), LRRKtide substrate, mean of several tests. The method, boiled down:
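IC50 values are means of repeat runs, fitted with a 4-parameter logistic to the 520/495 nm TR-FRET ratio from a Tb-labeled anti-phospho-LRRKtide antibody added with EDTA. Reactions ran 90 min at room temperature at Km ATP (134 μM) with fluorescein-LRRKtide, after 15-min compound preincubation with truncated GST-tagged G2019S LRRK2.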
For “(3R or 3S)-N-[6-[4-((3R,4R or 3S,4S)-4-fluoro-3-methyl-tetrahydrofuran-3-yl)piperazin-1-yl]-7-methyl-3-isoquinolyl]-5,5-dimethyl-tetrahydrofuran-3-carboxamide [Ex-10.95]”, the “LRRK2 pIC50” value is on record as 9.64.

Consider “(3R or 3S)-N-[6-[4-((3R,4R or 3S,4S)-4-fluoro-3-methyl-tetrahydrofuran-3-yl)piperazin-1-yl]-7-methyl-3-isoquinolyl]-5,5-dimethyl-tetrahydrofuran-3-carboxamide [Ex-10.93]”, for which the “LRRK2 pIC50” value is 9.90. As to `O=C(Nc1cc2cc(N3CCN(C4COC4)CC3)c(Cl)cc2cn1)C1CC1` [Ex-8.1, N-(7-chloro-6-(4-(oxetan-3-yl)piperazin-1-yl)isoquinolin-3-yl)cyclopropanecarboxamide], the “LRRK2 pIC50” value worked out at 7.99.

For `CC(C)C1CC(C(=O)Nc2cc3cc(N4CCN(C5(C)COCC5O)CC4)c(Cl)cc3cn2)C1` (stereo not drawn) [Ex-9.3], the “LRRK2 pIC50” value stood at 8.58.

For `Cc1cc2cnc(NC(=O)C3CC34CCOCC4)cc2cc1N1CCN(C2(C)COCC2O)[C@@H](C)C1` (stereo partly drawn) [Ex-6.10], the “LRRK2 pIC50” value is 9.26.

Still in this test, the particulars now being: 134 μM ATP (Km ATP), LRRKtide substrate, mean of several tests, read-out: LRRK2 pIC50 (converted).
Regarding `Cc1cc2cnc(NC(=O)C3CC34CCOC4)cc2cc1N1CCN(C2(C)COCC2O)CC1` (single isomer, unassigned) [Ex-6.7, (1R, 3S or 1S,3R, or 1R,3S, or 1S,3S)-N-(6-(4-((3R, 4R or 3S,4S)-4-hydroxy-3-methyltetrahydrofuran-3-yl)piperazin-1-yl)-7-methylisoquinolin-3-yl)-5-oxaspiro[2.4]heptane-1-carboxamide], the IC50 is 126 nM. For the compound `CC1(C)CC(C(=O)Nc2cc3cc(N4CCN(C5(C)COCC5O)CC4)c(Cl)cc3cn2)CO1` (single isomer, unassigned) [Ex-1.21, (R or S)-N-(7-chloro-6-(4-((3R,4R or 3S,4S)-4-hydroxy-3-methyltetrahydrofuran-3-yl)piperazin-1-yl)isoquinolin-3-yl)-5,5-dimethyltetrahydrofuran-3-carboxamide], the IC50 was 1.74 nM. Take `COC1COCC1(C)N1CCN(c2cc3cc(NC(=O)C4CC45CCOCC5)ncc3cc2Cl)CC1` (single isomer, unassigned) [Ex-5.4]: the IC50 was 28.8 nM.

As to `O=C(Nc1cc2cc(N3CCN(C4COCC4O)CC3)c(Cl)cc2cn1)C1CC12CCOCC2` (single isomer, unassigned) [Ex-2.7, (R or S)-N-(7-chloro-6-(4-((3R,4R or 3S,4S)-4-hydroxytetrahydrofuran-3-yl)piperazin-1-yl)isoquinolin-3-yl)-6-oxaspiro[2.5]octane-1-carboxamide], the IC50 was 380 nM. As to `Cn1ncc(C2CC2C(=O)Nc2cc3cc(N4CCN(C5(C)COCC5O)CC4)c(Cl)cc3cn2)n1` (single isomer, unassigned) [Ex-16.2, (1S,2R or 1S,2S)-N-(N-(7-chloro-6-(4-(4-hydroxy-3-methyltetrahydrofuran-3-yl)piperazin-1-yl)isoquinolin-3-yl)-2-(2-methyl-2H-1,2,3-triazol-4-yl)cyclopropane-1-carboxamide], the IC50 is 0.0813 nM. Same read-out and setting: the result for `Cc1cc2cnc(NC(=O)C3CC3c3cnn(C)c3C(F)(F)F)cc2cc1N1CCN(C2(C)CCOC2)CC1` (single isomer, unassigned) [Ex-10.36, (1R,2R or 1S,2S)-N-[7-methyl-6-[4-((R or S)-3-methyltetrahydrofuran-3-yl)piperazin-1-yl]-3-isoquinolyl]-2-[1-methyl-5-(trifluoromethyl)pyrazol-4-yl]cyclopropanecarboxamide] reads 107 nM. On to `CC1(c2ccccn2)CC1C(=O)Nc1cc2cc(N3CCN(C4(C)COCC4O)CC3)c(Cl)cc2cn1` (single isomer, unassigned) [Ex-11.2, (1R,2R)(3R,4R)— or (1R,2S)(3R,4R)— or (1S,2R)(3R,4R)— or (1S,2S)(3R,4R)— or (1R,2R)(3S,4S)— or (1R,2S)(3S,4S)— or (1S,2R)(3S,4S)— or (1S,2S)(3S,4S)-N-(7-chloro-6-(4-(4-hydroxy-3-methyltetrahydrofuran-3-yl)piperazin-1-yl)isoquinolin-3-yl)-2-methyl-2-(pyridin-2-yl)cyclopropane-1-carboxamide], for which the IC50 is 45.7 nM. Same read-out and setting: the result for `CC1C(C(=O)Nc2cc3cc(N4CCN(C5(C)CCOC5)CC4)c(Cl)cc3cn2)C1c1cnn(C)c1` (single isomer, unassigned) [Ex-9.7] reads 0.0813 nM; that for `Cc1cc2cnc(NC(=O)C3C(C)C3c3cnn(C)c3)cc2cc1N1CCN(C2(C)CCOC2)CC1` (single isomer, unassigned) [Ex-9.15], 0.316 nM. The same measure, in the same setting: the result for `Cc1cc2cnc(NC(=O)C3CC34CCOC4)cc2cc1N1CCN(C2(C)COCC2O)CC1` (single isomer, unassigned) [Ex-6.5, (1R, 3S or 1S,3R, or 1R,3S, or 1S,3S)-N-(6-(4-((3R, 4R or 3S,4S)-4-hydroxy-3-methyltetrahydrofuran-3-yl)piperazin-1-yl)-7-methylisoquinolin-3-yl)-5-oxaspiro[2.4]heptane-1-carboxamide] reads 1.05 nM; that for `CC1(N2CCN(c3cc4cc(NC(=O)C5CC56CCOC6)ncc4cc3Cl)CC2)COCC1O` (single isomer, unassigned) [Ex-2.11, (1R,3R or 1S,3S)-N-(7-chloro-6-(4-((3R,4R or 3S,4S)-4-hydroxy-3-methyltetrahydrofuran-3-yl)piperazin-1-yl)isoquinolin-3-yl)-5-oxaspiro[2.4]heptane-1-carboxamide], 1.45 nM. On the same count and under the same terms, next, `O=C(Nc1cc2cc(N3CCN(C4COCC4O)CC3)c(Cl)cc2cn1)C1CC12CCOCC2` (single isomer, unassigned) [Ex-2.5, (R or S)-N-(7-chloro-6-(4-((3R,4R or 3S,4S)-4-hydroxytetrahydrofuran-3-yl)piperazin-1-yl)isoquinolin-3-yl)-6-oxaspiro[2.5]octane-1-carboxamide]: 41.7 nM; `CC1(N2CCN(c3cc4cc(NC(=O)C5CC5C(F)F)ncc4cc3Cl)CC2)COCC1F` (single isomer, unassigned) [Ex-10.78, (1R,2R or 1S,2S)-N-[7-chloro-6-[4-((3R,4R or 3S,4S)-4-fluoro-3-methyl-tetrahydrofuran-3-yl)piperazin-1-yl]-3-isoquinolyl]-2-(difluoromethyl)cyclopropanecarboxamide]: 0.0813 nM. Turning to `CC1(N2CCN(c3cc4cc(NC(=O)C5C6COCC65)ncc4cc3Cl)CC2)COCC1O` (single isomer, unassigned) [Ex-1.10, (1R or S)-N-(7-chloro-6-(4-((3R,4R or 3S,4S)-4-hydroxy-3-methyltetrahydrofuran-3-yl)piperazin-1-yl)isoquinolin-3-yl)-3-oxabicyclo[3.1.0]hexane-6-carboxamide], the IC50 was 107 nM.

Consider `CC1C(C(=O)Nc2cc3cc(N4CCN(C5(C)COCC5O)CC4)c(Cl)cc3cn2)C1c1ccccn1` (single isomer, unassigned) [Ex-11.4, (1R,2R,3R, or 1R,2S,3R, or 1S,2R,3S, or 1S,2S,3S)-N-(7-chloro-6-(4-((3R,4R or 3S,4S)-4-hydroxy-3-methyltetrahydrofuran-3-yl)piperazin-1-yl)isoquinolin-3-yl)-2-methyl-3-(pyridin-2-yl)cyclopropane-1-carboxamide], for which the IC50 was 0.977 nM. Take `CC1(C)OCCC1C(=O)Nc1cc2cc(N3CCN(C4(C)COCC4O)CC3)c(Cl)cc2cn1` (single isomer, unassigned) [Ex-1.23, (R or S)-N-(7-chloro-6-(1-((3R,4R or 3S,4S)-4-hydroxy-3-methyltetrahydrofuran-3-yl)piperazin-4-yl)isoquinolin-3-yl)-2,2-dimethyltetrahydrofuran-3-carboxamide]: the IC50 was 7.41 nM. On the same count and under the same terms, the result for `CC1(N2CCN(c3cc4cc(NC(=O)C56CC(C5)C6)ncc4cc3Cl)CC2)COCC1O` (single isomer, unassigned) [Ex-2.19, N-(7-chloro-6-(4-((3R,4R or 3S,4S)-4-hydroxy-3-methyltetrahydrofuran-3-yl)piperazin-1-yl)isoquinolin-3-yl)bicyclo[1.1.1]pentane-1-carboxamide] reads 2.88 nM. Turning to `CC1(N2CCN(c3cc4cc(NC(=O)C5CC6(CC6)C5)ncc4cc3Cl)CC2)COCC1O` (single isomer, unassigned) [Ex-2.17, N-(7-chloro-6-(4-((3R,4R or 3S,4S)-4-hydroxy-3-methyltetrahydrofuran-3-yl)piperazin-1-yl)isoquinolin-3-yl)spiro[2.3]hexane-5-carboxamide], the IC50 was 0.955 nM. Turning to `CC1C(C(=O)Nc2cc3cc(N4CCN(C5(C)COCC5O)CC4)c(Cl)cc3cn2)C1c1ccccn1` (single isomer, unassigned) [Ex-11.3, (1R,2R,3R, or 1R,2S,3R, or 1S,2R,3S, or 1S,2S,3S)-N-(7-chloro-6-(4-((3R,4R or 3S,4S)-4-hydroxy-3-methyltetrahydrofuran-3-yl)piperazin-1-yl)isoquinolin-3-yl)-2-methyl-3-(pyridin-2-yl)cyclopropane-1-carboxamide], the IC50 was 0.0813 nM. Same read-out and setting: next, `CC1(N2CCN(c3cc4cc(NC(=O)C5CC5)ncc4cc3F)CC2)COCC1O` (single isomer, unassigned) [Ex-1.6, (3R,4R or 3S,4S)-N-(7-fluoro-6-(4-(4-hydroxy-3-methyltetrahydrofuran-3-yl)piperazin-1-yl)isoquinolin-3-yl)cyclopropanecarboxamide]: 912 nM; `COC1COCC1(C)N1CCN(c2cc3cc(NC(=O)C4CC45CCOCC5)ncc3cc2Cl)CC1` (single isomer, unassigned) [Ex-5.6]: 316 nM.

As for `CC(C)(O)C1CC1C(=O)Nc1cc2cc(N3CCN(C4(C)COCC4O)CC3)c(Cl)cc2cn1` (single isomer, unassigned) [Ex-10.6], the IC50 is 0.141 nM.

These data come from patent US12516039B2, “N-linked isoquinoline amides as LRRK2 inhibitors, pharmaceutical compositions, and uses thereof” (Merck Sharp & Dohme LLC, priority 2020, dated 2026).
